Assay results published in US11884905B2, “Fluidic chip for cell culture use, culture vessel, and culture method” (University Public Corporation Osaka, priority 2017, dated 2024).

What was measured:
Format in all cases: cell-based
Settings in all cases: culture solution containing 20 μM doxorubicin, 24 hours, optical microscope
human fibroblast cells = assay: Fluidic chip three-dimensional culture with doxorubicin, fibroblast cells downstream of hepatoma cells (control)
Protocol: (§1) Cardiac toxicity known as efficacy and side effect of doxorubicin widely used as an anticancer drug was assessed using the fluidic chip for cell culture use according to the present invention.
(§2) First, five culture vessels 9a each enclosing human hepatoma-derived cells were manufactured, three culture vessels 9b each enclosing human umbilical vein endothelial cells were manufactured, three culture vessels 9c each enclosing human myocardial cells were manufactured, three culture vessels 9d each enclosing human bronchial epithelial cells were manufactured, and three culture vessels 9e each enclosing human fibroblast cells were manufactured. These culture vessels 9a to 9e were subjected to preparatory culture (cultured in three dimensions) for two days in wells 33 of the multi-well plate 32, respectively. The culture vessels were manufactured in the same manner as in the cell culture experiment (1), except that the kinds of the cells to be cultured were changed. FIG. 15 illustrates the photograph of the multi-well plate 32 after the preparatory culture.
(§3) Thereafter, the culture vessels 9a to 9e were set on an optical microscope, and the cultured cells were observed. […] Then, sample cells in good condition in shape were only extracted. […]

[1] = system: human bronchial epithelial cells; assay: Fluidic chip three-dimensional culture with doxorubicin, bronchial epithelial cells downstream of hepatoma cells (control)
Protocol: as §1, §2, §3

[2] = system: human hepatoma-derived cells; assay: Fluidic chip three-dimensional culture with doxorubicin, hepatoma cells (upstream)
Protocol: as §1, §2, §3

human myocardial cells = assay: Fluidic chip three-dimensional culture with doxorubicin, cardiac toxicity on myocardial cells downstream of hepatoma cells
Protocol: as §1, §2, §3

Q: For `COc1cccc2c1C(=O)c1c(O)c3c(c(O)c1C2=O)C[C@@](O)(C(=O)CO)C[C@@H]3O[C@H]1C[C@H](N)[C@H](O)[C@H](C)O1` [doxorubicin], which “change in shape / growth of fibroblast cells” value (human fibroblast cells) is on record?
A: the fibroblast cells continued to grow

Q: What about the “change in shape / growth of bronchial epithelial cells” value [1] of the same compound?
A: a branch of a bronchus was wide and continued to grow

Q: What about the “change in shape of hepatoma cells (infiltrating portions), efficacy as anticancer drug” value [2] of the same compound?
A: the infiltrating portions disappear within twenty-four hours

Q: What about the “change in shape of myocardial cells (cardiac toxicity)” value (human myocardial cells) of the same compound?
A: entirely reduced in size
